IC50 data for one molecule are collected here from patent US10059721B2, “Substituted thieno[3,2-b]pyrazines for inhibiting cancer cell proliferation and inducing cancer cell apoptosis” (DONGGUK UNIVERSITY INDUSTRY-ACADEMIC COOPERATION FOUNDATION, priority 2014, dated 2018).

Each structure is given as a SMILES string. Some results are limits rather than exact numbers.

Common to all, as to assay type: cell-based
The subject of one test is SK-OV-3. Kind of test: Cell growth inhibition experiment (SRB), SK-OV-3. Particulars: Homo sapiens, incubated for 96 hours, read-out: IC50 (μM) of cancer cell lines SK-OV-3. The protocol:
(§1) The 4-(aryl)-N-(2-alkoxythieno[3,2-b]pyrazin-3-yl)-piperazin-1-carboxamide derivative compounds synthesized according to Examples 1 to 27 of the present invention were treated with various human tissue-derived cancer cell lines cultured according to Experimental Example 1, and thus the inhibitory effect of the growth of human cancer cells was confirmed. The cell growth inhibition experiment was conducted using sulforhodamine B (SRB) technique (Skehan et al., J. National Cancer Institute, 1990, 82: 1107-1112). Specifically, each cell line was seeded in a 96-well plate at a density of 2 to 3×10^3 cells/well, cultured overnight, and then treated with the 4-(aryl)-N-(2-alkoxythieno[3,2-b]pyrazin-3-yl)-piperazin-1-carboxamide derivative compounds of the present invention. The experiment was repeated 3 times for each compound. Cells treated with each compound were additionally incubated for 96 hours, fixed with 10% trichloroacetic acid (TCA), and then left at 4° C. for 1 hour. The resultant was washed 3 times with distilled water. Thereafter, each cell was treated with 0.4% sulforhodamine B dissolved in 1% acetic acid, stained for 30 minutes, and then washed 4 times with 1% acetic acid. The resultant was dried in the air. After shaking the resultant in Tris solution (10 mM) for 5 minutes, the absorbance was measured at 530 nm using a Benchmark Plus Microplate reader (Bio-Rad Laboratories, Hercules, Calif.).
(§2) In order to convert the OD530 value to the number of viable cells per each well, the measured OD530 value was compared to the standard OD530-vs.-cell number curve of each cell line. The percent survival was calculated using the following formula: % survival=Nlive cells(test)/Nlive cells(control)×100
(§3) IC50 values were calculated by nonlinear regression analysis.

In another test the test system is HT29. The test is described as follows: Cell growth inhibition experiment (SRB), HT29. The following applies: Homo sapiens, HT-29, incubated for 96 hours, read-out: IC50 (μM) of cancer cell lines HT29. The protocol: as §1, §2, §3
Test [1] has as its system HN31 (head and neck cancer) cell line. The test is described as follows: Cell growth inhibition experiment (SRB), HN31. Particulars: Homo sapiens, incubated for 96 hours, read-out: IC50 (μM) of cancer cell lines HN31. Here is the method: (§4) The cell lines below were used in order to confirm the efficacy of the compounds synthesized in Examples 1 to 27. Human PANC-1 (pancreatic cancer) and MDA-MB-231 (breast cancer) cell lines were obtained from American Type Culture Collection (ATCC; Manassas, Va.); and HN31 (head and neck cancer) and UMRC2 (kidney cancer) cell lines were secured from the United States National Institutes of Health (Bethesda, Md.). The MDA-MB-231, UMRC2, HN31, and PANC-1 cell lines were cultured in Dulbecco modified Eagle medium (DMEM) containing FBS (10%), HEPES (10 mM), penicillin (100 U/mL), and streptomycin (100 μg/mL). All cell lines were cultured in an incubator (37° C., 5% CO2).
as §1, §2, §3

Another test relates to HEK293. Kind of test: Cell growth inhibition experiment (SRB), HEK293. The following applies: Homo sapiens, incubated for 96 hours, read-out: IC50 (μM) of cancer cell lines HEK293. Here is the method:
as §1, §2, §3

A further test relates to HUVEC. The test is described as follows: Cell growth inhibition experiment (SRB), HUVEC. The following applies: Homo sapiens, incubated for 96 hours, read-out: IC50 (μM) of cancer cell lines HUVEC. The protocol:
as §1, §2, §3

In test [2] the test system is UMRC2 (kidney cancer) cell line. Kind of test: Cell growth inhibition experiment (SRB), UMRC2. Particulars: Homo sapiens, incubated for 96 hours, read-out: IC50 (μM) of cancer cell lines UMRC2. The protocol:
as §4, §1, §2, §3

Test [3] relates to MDA-MB-231 (breast cancer) cell line. Kind of test: Cell growth inhibition experiment (SRB), MDA-MB-231. The following applies: Homo sapiens, incubated for 96 hours, read-out: IC50 (μM) of cancer cell lines MDA-MB-231. The protocol:
as §4, §1, §2, §3

Another test concerns A549. The test is described as follows: Cell growth inhibition experiment (SRB), A549. Particulars: Homo sapiens, incubated for 96 hours, read-out: IC50 (μM) of cancer cell lines A549. Here is the method:
as §1, §2, §3

The subject of test [4] is PANC-1 (pancreatic cancer) cell line. The test is described as follows: Cell growth inhibition experiment (SRB), PANC-1. Particulars: Homo sapiens, incubated for 96 hours, read-out: IC50 (μM) of cancer cell lines PANC-1. The protocol:
as §4, §1, §2, §3

As to `CCOc1nc2cc(Cl)sc2nc1NC(=O)N1CCN(c2cc(OC)cc(OC)c2)CC1` [Example 4, N-(6-chloro-2-ethoxythieno[3,2-b]pyrazin-3-yl)-4-(3,5-dimethoxyphenyl)piperazin-1-carboxamide], the IC50 in the test with SK-OV-3 was below 2.5 µM; in the test on HT29 it was below 2.5 µM; in test [1], 1.54 µM; with HEK293 it was below 2.5 µM; in the test with HUVEC, 2.25 µM; in test [2], 0.54 µM. Further, the IC50 in [3] was 0.63 µM; with A549, below 2.5 µM; in [4], 1.28 µM.

For orientation: IC50 means the midpoint of a concentration-inhibition curve.
